According to patent US7446106B2, “Pyridylfurans and pyrroles as Raf kinase inhibitors” (SmithKline Beecham plc, priority 2001, dated 2008):

Assays:
[1] = tested on: HFF (normal human foreskin fibroblasts); test: Methylene blue growth inhibition assay (Assay 2), HFF; type: cell-based; conditions: Fibroblast, 72 h, B-Raf wt, Ras wt, 3 days, read-out: IC50 cell growth, HFF
A375P (human melanoma) = test: Methylene blue growth inhibition assay (Assay 2), A375P; type: cell-based; conditions: 72 h, B-Raf V599E, Ras wt, 3 days, read-out: IC50 cell growth, A375P
[2] = tested on: Colo205 (colon carcinoma); test: Methylene blue growth inhibition assay (Assay 2), Colo205; type: cell-based; conditions: Homo sapiens, COLO 205, 72 h, colorectal cancer, B-Raf V599E, Ras wt, 3 days, read-out: IC50 cell growth, Colo205
SKMEL3 (human melanoma) = test: Methylene blue growth inhibition assay (Assay 2), SKMEL3; type: cell-based; conditions: SK-MEL3, 72 h, B-Raf V599E, Ras wt, 3 days, read-out: IC50 cell growth, SKMEL3
[3] = tested on: Colo201 (human colon carcinoma); test: XTT 72 hr growth inhibition (Assay 3), Colo201; type: cell-based; conditions: COLO 201, colorectal cancer, B-Raf status ND, Ras ND, read-out: IC50 cell viability, Colo201
Protocol: XTT 72 Hr Growth Inhibition Protocol for Mammalian Cultured Cells (Assay 3)
Human diploid foreskin fibroblasts (HFF) or human colon carcinoma (Colo 201) cells were grown in Dulbecco's modified Eagle's medium (DMEM) (kvitrogen/Life Technologies) containing 10% fetal bovine serum (FBS) and the antibiotics penicillin (100 Units/ml) and streotomycin (100 microgramnis/ml) (Invitrogen/Life Technologies). Growth was at 37° C. in humidified 5% CO2 incubators in 75 cm^2 plastic flasks. Cells were harvested using 0.25% trypsin/1 mM ethylenediaminetetraacetic acid (EDTA), resuspended in growth medium, and counted using a hemocytometer. Flat-bottomed 96-well plates were seeded with 2×10^3 cells/well in a volume of 200 ul from trypsinized exponentially growing cultures. To “blank” wells, growth medium was added with no additions. Cells were incubated overnight to permit attachment.
Next day, medium from wells that contained cells was replaced with 180 microliters of fresh medium. Appropriate dilutions of test compounds were added to the wells from stock soloutions of compound dissolved in dimethyl sulfoxide (DMSO); final DMSO concentration in all wells was 0.2%. […] Absorbance at 450 nm was then determined using a 96-well UV plate reader (Molecular Devices). Under these conditions, absorbance of untreated control cells at […] was at least 1.0 optical density unit/ml. […]

B-Raf = B-Raf (Homo sapiens, UniProt P15056); test: Fluorescence anisotropy kinase binding assay (Assay 1)
Source text: The activity of compounds of formula (I) as B-Raf inhibitors may be determined by the following in vitro assay:
Fluorescence Anisoptrophy Kinase Binding Assay
The concentration of kinase enzyme should preferably be >1×Kf. The concentration of fluorescent ligand required will depend on the instrumentation used, and the fluorescent and physicochemical properties. The concentration used must be lower than the concentration of kinase enzyme, and preferably less than half the kinase enzyme concentration. A typical protocol is:
All compounds are serially diluted in DMSO, then by a one step dilution into buffer of comparison, 50 mM HEPES, […] pH7.5, 1 mM CHAPS, 10 mM MgCL2, for the assay.
B-Raf Enzyme concentration: 1 nM
Fluorescent ligand concentration: 0.5 nM
Test compound concentration: 0.5 nM-100 uM
Components incubated in 10 ul final volume in LJL HE 384 type B black microtitre plate until equilibrium reached (Over 3 h, up to 30 h)
Fluorescence anisotropy read in an LJL Acquest fluorescence reader.
Definitions: Ki=dissociation constant for inhibitor binding
• Kf=dissociation constant for fluorescent ligand binding
The fluorescent ligand is the following compound:
which is derived from 5-[2(4aminomethylphenyl)-5-pyridin-4-yl-1H-imidazolyl-4-yl]-2-chlorophenol and rhodamine green.

SKMEL2 (human melanoma) = test: Methylene blue growth inhibition assay (Assay 2), SKMEL2; type: cell-based; conditions: SK-MEL-2, 72 h, B-Raf wt, [Q61R]N-Ras, 3 days, read-out: IC50 cell growth, SKMEL2

Sequence of B-Raf (P15056 whole entry): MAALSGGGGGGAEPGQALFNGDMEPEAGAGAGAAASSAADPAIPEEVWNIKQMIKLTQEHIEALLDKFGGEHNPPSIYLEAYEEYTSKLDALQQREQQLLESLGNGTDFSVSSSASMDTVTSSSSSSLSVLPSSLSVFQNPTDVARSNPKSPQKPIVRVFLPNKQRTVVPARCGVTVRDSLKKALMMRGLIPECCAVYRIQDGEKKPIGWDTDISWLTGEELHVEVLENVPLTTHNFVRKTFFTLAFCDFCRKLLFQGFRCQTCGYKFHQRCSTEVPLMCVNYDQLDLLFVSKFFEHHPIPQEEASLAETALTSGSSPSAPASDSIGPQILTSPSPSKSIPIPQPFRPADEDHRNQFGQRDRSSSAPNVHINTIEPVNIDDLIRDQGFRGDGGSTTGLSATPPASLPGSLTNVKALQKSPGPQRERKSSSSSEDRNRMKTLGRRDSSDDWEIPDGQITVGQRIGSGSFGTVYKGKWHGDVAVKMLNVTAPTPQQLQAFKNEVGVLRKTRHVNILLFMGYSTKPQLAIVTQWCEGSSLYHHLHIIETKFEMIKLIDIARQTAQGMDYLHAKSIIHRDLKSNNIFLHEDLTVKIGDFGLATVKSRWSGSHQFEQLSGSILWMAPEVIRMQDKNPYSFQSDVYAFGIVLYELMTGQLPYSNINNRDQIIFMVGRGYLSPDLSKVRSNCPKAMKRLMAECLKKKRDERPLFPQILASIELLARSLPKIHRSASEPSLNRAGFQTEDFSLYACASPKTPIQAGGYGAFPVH

With `CN(C)CCOc1ccc(-c2cc(-c3ccc(Cl)c(O)c3)c(-c3ccncc3)o2)cc1` [Example 3, 2-Chloro-5-{5-[4-(2-dimethylamino-ethoxy)-phenyl]-2-pyridin-4-yl-furan-3-yl}-phenol] as the compound, how does the IC50 [1] read?
Its IC50 is over 30000 nM.

And the IC50 (A375P (human melanoma))?
The IC50 was 2300 nM.

What about the IC50 [2] of the same compound?
The IC50 was 9400 nM.

What about the IC50 (SKMEL3 (human melanoma)) of the same compound?
Its IC50 is 890 nM.

What about the IC50 [3] of the same compound?
Its IC50 is 4500 nM.

And the Kd (B-Raf)?
The Kd was 3 nM.

What about the IC50 (SKMEL2 (human melanoma)) of the same compound?
The IC50 was over 1400 nM.
